Results as given in patent US11180504B2 (ORCHID PHARMA LTD., priority 2016, dated 2021).
In brackets after ≈: the same amount, converted by molar mass.

Assays:
[1] = tested on: carbapenem sensitive Pseudomonas aeruginosa; assay: MIC by broth micro-dilution (CLSI), carbapenem sensitive P. aeruginosa; type: cell-based; settings: Pseudomonas aeruginosa, ATCC27853, Meropenem susceptible P. aeruginosa ATCC27853; read-out: MIC
[2] = tested on: methicillin-sensitive Staphylococcus aureus; assay: MIC by broth micro-dilution (CLSI), methicillin-sensitive S. aureus; type: cell-based; settings: Staphylococcus aureus, ATCC 29213 / MSSA, MSSA S. aureus ATCC29213; read-out: MIC
[3] = tested on: carbapenem sensitive Escherichia coli; assay: MIC by broth micro-dilution (CLSI), carbapenem sensitive E. coli; type: cell-based; settings: Escherichia coli, ATCC25922, ESBL −ve E. coli ATCC25922; read-out: MIC
[4] = tested on: carbapenemase producing K. pneumoniae; assay: MIC by broth micro-dilution (CLSI), carbapenemase producing K. pneumoniae; type: cell-based, Klebsiella pneumoniae; settings: Klebsiella pneumoniae, ATCCBAA1705, KPC-2 K. pneumoniae ATCC BAA-1705; read-out: MIC
[5] = tested on: extended spectrum β lactamase (ESBL) SHV18 producing Klebsiella pneumoniae; assay: MIC by broth micro-dilution (CLSI), ESBL SHV18 producing K. pneumoniae; type: cell-based; settings: Klebsiella pneumoniae, ATCC700603, 22 h, ESBL +ve (SHV-18) K. pneumoniae ATCC700603; read-out: MIC

| MIC [1] | MIC [2] | MIC [3] | MIC [4] | MIC [5] | SMILES |
| --- | --- | --- | --- | --- | --- |
| 8 µg/mL (≈ 14.3 µM) | 1 µg/mL (≈ 1.79 µM) | 0.5 µg/mL (≈ 0.895 µM) | 4 µg/mL (≈ 7.16 µM) | 4 µg/mL (≈ 7.16 µM) | C[C@@H](NC(=O)C(F)F)[C@H]1C(=O)N2C(C(=O)O)=C(S[C@@H]3CN[C@H](C(=O)N4CC[C@H](NC(=O)CN)C4)C3)[C@H](C)[C@H]12 [Example 121] |
| 16 µg/mL (≈ 31 µM) | 1 µg/mL (≈ 1.94 µM) | 1 µg/mL (≈ 1.94 µM) | 4 µg/mL (≈ 7.76 µM) | 4 µg/mL (≈ 7.76 µM) | C[C@@H](NC(=O)C(F)F)[C@H]1C(=O)N2C(C(=O)O)=C(S[C@@H]3CN[C@H](C(=O)N4CCC[C@H](N)C4)C3)[C@H](C)[C@H]12 [Example 122] |
| 64 µg/mL (≈ 114 µM) | 2 µg/mL (≈ 3.57 µM) | 0.5 µg/mL (≈ 0.894 µM) | 4 µg/mL (≈ 7.15 µM) | 2 µg/mL (≈ 3.57 µM) | COC(=O)N[C@H]1CCN(C(=O)[C@@H]2C[C@H](SC3=C(C(=O)O)N4C(=O)[C@H]([C@@H](C)NC(=O)C(F)F)[C@H]4[C@H]3C)CN2)C1 [Example 123] |
| 4 µg/mL (≈ 7.98 µM) | 2 µg/mL (≈ 3.99 µM) | 1 µg/mL (≈ 1.99 µM) | 4 µg/mL (≈ 7.98 µM) | 4 µg/mL (≈ 7.98 µM) | C[C@@H](NC(=O)C(F)F)[C@H]1C(=O)N2C(C(=O)O)=C(S[C@@H]3CN[C@H](C(=O)N4CC[C@@H](N)C4)C3)[C@H](C)[C@H]12 [Example 124] |
| 16 µg/mL (≈ 30.1 µM) | 2 µg/mL (≈ 3.76 µM) | 2 µg/mL (≈ 3.76 µM) | 8 µg/mL (≈ 15 µM) | 8 µg/mL (≈ 15 µM) | C[C@@H](NC(=O)C(F)F)[C@H]1C(=O)N2C(C(=O)O)=C(S[C@@H]3CN[C@H](C(=O)N4CCO[C@H](CN)C4)C3)[C@H](C)[C@H]12 [Example 126] |
| 32 µg/mL (≈ 60.2 µM) | 2 µg/mL (≈ 3.76 µM) | 2 µg/mL (≈ 3.76 µM) | 16 µg/mL (≈ 30.1 µM) | 8 µg/mL (≈ 15 µM) | C[C@@H](NC(=O)C(F)F)[C@H]1C(=O)N2C(C(=O)O)=C(SC3CN[C@H](C(=O)N4CCO[C@@H](CN)C4)C3)[C@H](C)[C@H]12 (stereo partly drawn) [Example 127] |
| 64 µg/mL (≈ 142 µM) | 16 µg/mL (≈ 35.6 µM) | 4 µg/mL (≈ 8.9 µM) | 8 µg/mL (≈ 17.8 µM) | 8 µg/mL (≈ 17.8 µM) | C[C@@H](NC(=O)CC#N)[C@H]1C(=O)N2C(C(=O)O)=C(S[C@@H]3CN[C@H](C(=O)N(C)C)C3)[C@H](C)[C@H]12 [Example 128] |
| 8 µg/mL (≈ 16.2 µM) | 32 µg/mL (≈ 64.7 µM) | 4 µg/mL (≈ 8.09 µM) | 8 µg/mL (≈ 16.2 µM) | 32 µg/mL (≈ 64.7 µM) | CNCC(=O)N[C@H](C)[C@H]1C(=O)N2C(C(=O)O)=C(S[C@@H]3CN[C@H](C(=O)N4CC[C@H](N)C4)C3)[C@H](C)[C@H]12 [Example 129] |
| 32 µg/mL (≈ 63.8 µM) | 2 µg/mL (≈ 3.99 µM) | 1 µg/mL (≈ 1.99 µM) | 4 µg/mL (≈ 7.98 µM) | 8 µg/mL (≈ 16 µM) | C[C@@H](NC(=O)C(F)F)[C@H]1C(=O)N2C(C(=O)O)=C(S[C@@H]3CN[C@H](C(=O)N[C@@H]4CCNC4)C3)[C@H](C)[C@H]12 [Example 130] |
| 16 µg/mL (≈ 32.8 µM) | 4 µg/mL (≈ 8.2 µM) | 0.5 µg/mL (≈ 1.03 µM) | 8 µg/mL (≈ 16.4 µM) | 2 µg/mL (≈ 4.1 µM) | C[C@@H](NC(=O)C(F)F)[C@H]1C(=O)N2C(C(=O)O)=C(S[C@@H]3CN[C@H](C(=O)N4CC(N)C4)C3)[C@H](C)[C@H]12 [Example 131] |
| 4 µg/mL (≈ 7.76 µM) | 2 µg/mL (≈ 3.88 µM) | 1 µg/mL (≈ 1.94 µM) | 4 µg/mL (≈ 7.76 µM) | 4 µg/mL (≈ 7.76 µM) | C[C@@H](NC(=O)C(F)F)[C@H]1C(=O)N2C(C(=O)O)=C(S[C@@H]3CN[C@H](C(=O)N4CCC(N)CC4)C3)[C@H](C)[C@H]12 [Example 132] |
| 8 µg/mL (≈ 13.1 µM) | 4 µg/mL (≈ 6.57 µM) | 1 µg/mL (≈ 1.64 µM) | 8 µg/mL (≈ 13.1 µM) | 4 µg/mL (≈ 6.57 µM) | C[C@@H](NC(=O)C(F)F)[C@H]1C(=O)N2C(C(=O)O)=C(S[C@@H]3CN[C@H](C(=O)N4CC[C@H](NS(=O)(=O)CCN)C4)C3)[C@H](C)[C@H]12 [Example 133] |
| 16 µg/mL (≈ 31 µM) | 2 µg/mL (≈ 3.88 µM) | 1 µg/mL (≈ 1.94 µM) | 4 µg/mL (≈ 7.76 µM) | 4 µg/mL (≈ 7.76 µM) | C[C@@H](NC(=O)C(F)F)[C@H]1C(=O)N2C(C(=O)O)=C(S[C@@H]3CN[C@H](C(=O)N(C)[C@H]4CCNC4)C3)[C@H](C)[C@H]12 [Example 134] |
| 8 µg/mL (≈ 15.5 µM) | 2 µg/mL (≈ 3.88 µM) | 1 µg/mL (≈ 1.94 µM) | 4 µg/mL (≈ 7.76 µM) | 4 µg/mL (≈ 7.76 µM) | C[C@@H]1CN(C(=O)[C@@H]2C[C@H](SC3=C(C(=O)O)N4C(=O)[C@H]([C@@H](C)NC(=O)C(F)F)[C@H]4[C@H]3C)CN2)CCN1 [Example 135] |
| 32 µg/mL (≈ 65.4 µM) | > 128 µg/mL | 4 µg/mL (≈ 8.17 µM) | 16 µg/mL (≈ 32.7 µM) | 16 µg/mL (≈ 32.7 µM) | C[C@@H](NS(=O)(=O)CCN)[C@H]1C(=O)N2C(C(=O)O)=C(S[C@@H]3CN[C@H](C(=O)N(C)C)C3)[C@H](C)[C@H]12 [Example 136] |
